{"source": "patent US8846653B2", "about": "“Delta-tocotrienol treatment and prevention of pancreatic cancer” (University of South Florida, priority 2006, dated 2014)", "format_in_all_cases": "cell-based, human", "key": {"MiaPaCa-2 cells [1]": {"test_system": "MiaPaCa-2 cells", "test": "MTT assay of MiaPaCa2 cultures, single 50 μM dose", "set-up": "rel amt (relative value set to the control): unit not given here", "conditions": "MiaPaCa2, 50 μM; for MTT assay result, av-blank: average minus blank; for MTT assay result, av: average of 7 runs", "method": "MiaPaCa-2, BxPc-3, and HPDE6-C7 cells were cultured as described above, and treated with a single 50 μM dose of vehicle (ethanol extracted olive oil), T3 alpha (alpha tocotrienol), T3 beta (beta tocotrienol), T3 gamma (gamma tocotrienol), T3 delta (delta tocotrienol), T alpha (alpha tocopherol), T beta (beta tocopherol), TS (tocopherol succinate), GG (geranylgeraniol), SA (succinic acid). A control culture (vehicle only with no treatment) was grown alongside the treatments for comparison. Cell viability was measured using MTT assay at preselect times of 48 or 120 hours after treatment."}, "BXPC3 cells": {"test_system": "BXPC3 cells", "test": "MTT assay of BXPC3 cultures, single 50 μM dose", "conditions": "BXPC3, 50 μM; for MTT assay result, av-blank: average minus blank", "method": "(§1) BXPC3 cells were cultured in complete […] media containing 10% fetal bovine serum (FBS) and 1% penicillin-streptomycin, and 1% L-glutamine. BxPc-3 pancreatic cancer cells were cultured in complete RPMI media containing 10% fetal bovine serum (FBS), and 1% penicillin-streptomycin, 1% HEPES buffer, 1% sodium pyruvate and 1% L-glutamine HPDE6-C7 cells were cultured in serum-free keratinocyte SFM media. All cells were maintained at 37° C. in a humidified incubator with 5% CO2. The cells were treated with a single 50 μM dose of vehicle (vehicle only, may be a solvent), T3 alpha (alpha tocotrienol), T3 beta (beta tocotrienol), T3 gamma (gamma tocotrienol), T3 delta (delta tocotrienol), T alpha (alpha tocopherol), T beta (beta tocopherol), TS (tocopherol succinate), GG (geranylgeraniol), SA (succinic acid). A control (no treatment) culture was grown alongside the treatments for comparison. Cell viability was measured using MTT assay at preselect times of 48 or 120 hours after treatment."}, "MiaPaCa-2 cells [2]": {"test_system": "MiaPaCa-2 cells", "test": "MTS assay of MiaPaCa2 cultures, single 50 μM dose", "conditions": "MiaPaCa2, 50 μM", "method": "as §1, with “MiaPaCa-2” for “BXPC3”, “Cell viability was measured using MTT assay at preselect times of 48 or 120 hours after treatment.” left out"}}}
{"smiles": "O=C(O)CCC(=O)O", "note": "[SA, succinic acid]", "values": [{"measurement": "rel amt (relative value set to the control)", "setting": "MiaPaCa-2 cells [1]; 48 hours", "result": 74}, {"measurement": "MTT assay result, av-blank", "setting": "MiaPaCa-2 cells [1]; 48 hours", "result": 0.228}, {"measurement": "MTT assay result, av", "setting": "MiaPaCa-2 cells [1]; 48 hours", "result": 0.274}, {"measurement": "MTT assay result, run 1", "setting": "MiaPaCa-2 cells [1]; 48 hours", "result": 0.276}, {"measurement": "MTT assay result, run 2", "setting": "MiaPaCa-2 cells [1]; 48 hours", "result": 0.269}, {"measurement": "MTT assay result, run 3", "setting": "MiaPaCa-2 cells [1]; 48 hours", "result": 0.268}, {"measurement": "MTT assay result, run 4", "setting": "MiaPaCa-2 cells [1]; 48 hours", "result": 0.276}, {"measurement": "MTT assay result, run 5", "setting": "MiaPaCa-2 cells [1]; 48 hours", "result": 0.3}, {"measurement": "MTT assay result, run 6", "setting": "MiaPaCa-2 cells [1]; 48 hours", "result": 0.262}, {"measurement": "MTT assay result, run 7", "setting": "MiaPaCa-2 cells [1]; 48 hours", "result": 0.266}, {"measurement": "rel amt (relative value set to the control)", "setting": "MiaPaCa-2 cells [1]; 120 hours (5 days)", "result": 80}, {"measurement": "MTT assay result, av-blank", "setting": "MiaPaCa-2 cells [1]; 120 hours (5 days)", "result": 1.443}, {"measurement": "MTT assay result, av", "setting": "MiaPaCa-2 cells [1]; 120 hours (5 days)", "result": 1.495}, {"measurement": "MTT assay result, run 1", "setting": "MiaPaCa-2 cells [1]; 120 hours (5 days)", "result": 1.36}, {"measurement": "MTT assay result, run 2", "setting": "MiaPaCa-2 cells [1]; 120 hours (5 days)", "result": 1.346}, {"measurement": "MTT assay result, run 3", "setting": "MiaPaCa-2 cells [1]; 120 hours (5 days)", "result": 1.488}, {"measurement": "MTT assay result, run 4", "setting": "MiaPaCa-2 cells [1]; 120 hours (5 days)", "result": 1.609}, {"measurement": "MTT assay result, run 5", "setting": "MiaPaCa-2 cells [1]; 120 hours (5 days)", "result": 1.84}, {"measurement": "MTT assay result, run 6", "setting": "MiaPaCa-2 cells [1]; 120 hours (5 days)", "result": 1.412}, {"measurement": "MTT assay result, run 7", "setting": "MiaPaCa-2 cells [1]; 120 hours (5 days)", "result": 1.408}, {"measurement": "rel amt (relative value set to the control)", "setting": "BXPC3 cells; 48 hours", "result": 95}, {"measurement": "MTT assay result, av-blank", "setting": "BXPC3 cells; 48 hours", "result": 0.218}, {"measurement": "MTT assay result, av (average)", "setting": "BXPC3 cells; 48 hours, average of 7 runs", "result": 0.267}, {"measurement": "MTT assay result, run 1", "setting": "BXPC3 cells; 48 hours", "result": 0.273}, {"measurement": "MTT assay result, run 2", "setting": "BXPC3 cells; 48 hours", "result": 0.28}, {"measurement": "MTT assay result, run 3", "setting": "BXPC3 cells; 48 hours", "result": 0.271}, {"measurement": "MTT assay result, run 4", "setting": "BXPC3 cells; 48 hours", "result": 0.271}, {"measurement": "MTT assay result, run 5", "setting": "BXPC3 cells; 48 hours", "result": 0.254}, {"measurement": "MTT assay result, run 6", "setting": "BXPC3 cells; 48 hours", "result": 0.263}, {"measurement": "MTT assay result, run 7", "setting": "BXPC3 cells; 48 hours", "result": 0.255}, {"measurement": "rel amt (relative value set to the control)", "setting": "BXPC3 cells; 120 hours (5 days)", "result": 74}, {"measurement": "MTT assay result, av-blank", "setting": "BXPC3 cells; 120 hours (5 days)", "result": 0.428}, {"measurement": "MTT assay result, av", "setting": "BXPC3 cells; 120 hours (5 days), average of 7 runs", "result": 0.483}, {"measurement": "MTT assay result, run 1", "setting": "BXPC3 cells; 120 hours (5 days)", "result": 0.456}, {"measurement": "MTT assay result, run 2", "setting": "BXPC3 cells; 120 hours (5 days)", "result": 0.471}, {"measurement": "MTT assay result, run 3", "setting": "BXPC3 cells; 120 hours (5 days)", "result": 0.497}, {"measurement": "MTT assay result, run 4", "setting": "BXPC3 cells; 120 hours (5 days)", "result": 0.487}, {"measurement": "MTT assay result, run 5", "setting": "BXPC3 cells; 120 hours (5 days)", "result": 0.493}, {"measurement": "MTT assay result, run 6", "setting": "BXPC3 cells; 120 hours (5 days)", "result": 0.48}, {"measurement": "MTT assay result, run 7", "setting": "BXPC3 cells; 120 hours (5 days)", "result": 0.494}, {"measurement": "rel amt (relative value set to the control)", "setting": "MiaPaCa-2 cells [2]; 24 hours", "result": 105}, {"measurement": "MTS assay result, run 1", "setting": "MiaPaCa-2 cells [2]; 24 hours", "result": 0.24}, {"measurement": "MTS assay result, run 2", "setting": "MiaPaCa-2 cells [2]; 24 hours", "result": 0.248}, {"measurement": "MTS assay result, run 3", "setting": "MiaPaCa-2 cells [2]; 24 hours", "result": 0.25}, {"measurement": "MTS assay result, run 4", "setting": "MiaPaCa-2 cells [2]; 24 hours", "result": 0.245}, {"measurement": "MTS assay result, run 5", "setting": "MiaPaCa-2 cells [2]; 24 hours", "result": 0.236}, {"measurement": "MTS assay result, run 6", "setting": "MiaPaCa-2 cells [2]; 24 hours", "result": 0.219}, {"measurement": "MTS assay result, run 7", "setting": "MiaPaCa-2 cells [2]; 24 hours", "result": 0.214}, {"measurement": "MTS assay result, run 8", "setting": "MiaPaCa-2 cells [2]; 24 hours", "result": 0.204}, {"measurement": "MTS assay result, run 9", "setting": "MiaPaCa-2 cells [2]; 24 hours", "result": 0.232}, {"measurement": "rel amt (relative value set to the control)", "setting": "MiaPaCa-2 cells [2]; 48 hours", "result": 90}, {"measurement": "MTS assay result, run 1", "setting": "MiaPaCa-2 cells [2]; 48 hours", "result": 0.334}, {"measurement": "MTS assay result, run 2", "setting": "MiaPaCa-2 cells [2]; 48 hours", "result": 0.335}, {"measurement": "MTS assay result, run 3", "setting": "MiaPaCa-2 cells [2]; 48 hours", "result": 0.333}, {"measurement": "MTS assay result, run 4", "setting": "MiaPaCa-2 cells [2]; 48 hours", "result": 0.304}, {"measurement": "MTS assay result, run 5", "setting": "MiaPaCa-2 cells [2]; 48 hours", "result": 0.32}, {"measurement": "MTS assay result, run 6", "setting": "MiaPaCa-2 cells [2]; 48 hours", "result": 0.294}, {"measurement": "MTS assay result, run 7", "setting": "MiaPaCa-2 cells [2]; 48 hours", "result": 0.352}, {"measurement": "MTS assay result, run 8", "setting": "MiaPaCa-2 cells [2]; 48 hours", "result": 0.348}, {"measurement": "MTS assay result, run 9", "setting": "MiaPaCa-2 cells [2]; 48 hours", "result": 0.328}, {"measurement": "rel amt (relative value set to the control)", "setting": "MiaPaCa-2 cells [2]; 72 hours", "result": 114}, {"measurement": "MTS assay result, run 1", "setting": "MiaPaCa-2 cells [2]; 72 hours", "result": 0.596}, {"measurement": "MTS assay result, run 2", "setting": "MiaPaCa-2 cells [2]; 72 hours", "result": 0.547}, {"measurement": "MTS assay result, run 3", "setting": "MiaPaCa-2 cells [2]; 72 hours", "result": 0.566}, {"measurement": "MTS assay result, run 4", "setting": "MiaPaCa-2 cells [2]; 72 hours", "result": 0.515}, {"measurement": "MTS assay result, run 5", "setting": "MiaPaCa-2 cells [2]; 72 hours", "result": 0.544}, {"measurement": "MTS assay result, run 6", "setting": "MiaPaCa-2 cells [2]; 72 hours", "result": 0.44}, {"measurement": "MTS assay result, run 7", "setting": "MiaPaCa-2 cells [2]; 72 hours", "result": 0.397}, {"measurement": "MTS assay result, run 8", "setting": "MiaPaCa-2 cells [2]; 72 hours", "result": 0.427}, {"measurement": "MTS assay result, run 9", "setting": "MiaPaCa-2 cells [2]; 72 hours", "result": 0.504}]}
